Read-outs that look alike come from different tables or passages of the source. *1 amine or outer side, *2 acyl side, *3 side chain or, on linkers, in order; H or OH if unused. Bridges are numbered along the chain shown (N, C = ends). Roman numbers before positions name the chains, in order. [ ]: non-standard residue; d: D form. ξ: configuration not given here. X1 = NCCNC(=O)OC(CCC(=O)[*:1])CCC(=O)[*:2]; Nle = CCCC[C@H](N)C(=O)O; ξK = NCCCCC(N)C(=O)O; βAla = NCCC(=O)O
Key:
erythropoiesis of mice = assay: Effects of EPO mimetic peptide derivatives on mice, sc injection on three consecutive days, peripheral blood cell and reticulocyte counts; assay type: in vivo, Kunming mice; conditions: for Platelet / White Blood Cell: 4.5 mg/kg
Protocol: The biological activity of EPO, or EPO mimetic peptide derivatives and their pharmaceutical salts provided by this invention can be determined by various assays known in this field. Testing of in vivo activity is performed as follows: mice are subcutaneously injected with EPO and EPO mimetic peptide derivatives and their pharmaceutical salts provided by this invention on three consecutive days. The mice are then sacrificed. The whole blood is taken to carry out peripheral blood cells and reticulocyte count. The blood cell count is performed by automatic blood cell counter. […] The dose of EPO protein as a control drug is 240 μ/kg. The drugs are administered three times per week and the administration continues for six weeks. The blood samples are collected to carry out related hematological index analysis. The purpose of the experiments is to evaluate and compare the effects of EPO mimetic peptide derivatives and the EPO protein on erythropoiesis of mice. […] EPO is purchased from […] Pharmaceutical Co., Ltd. Kunming mice are purchased from the Chinese Academy of Sciences Shanghai Experimental Animal Center, weighing 25 30 g, ♀. The number of animals in each group is 10. Mice are injected subcutaneously with EPO mimetic peptide derivatives and EPO protein for three consecutive days. Then the mice are killed, the whole blood is used to carry out peripheral blood cells and reticulocyte counts. Blood cell count is performed using automatic blood cell counter counts.

[1] = system: EPO binding sites on immature red blood cells; conditions: cited from earlier work
[2] = system: erythropoiesis of the macaques; assay: Effects of EPO mimetic peptide derivatives on macaques, hematological indexes; assay type: in vivo
Protocol: The biological activity of EPO, or EPO mimetic peptide derivatives and their pharmaceutical salts provided by this invention can be determined by various assays known in this field. Testing of in vivo activity is performed as follows: mice are subcutaneously injected with EPO and EPO mimetic peptide derivatives and their pharmaceutical salts provided by this invention on three consecutive days. The mice are then sacrificed. The whole blood is taken to carry out peripheral blood cells and reticulocyte count. The blood cell count is performed by automatic blood cell counter. Pharmacodynamic studies are carried out by intravenous administration to macaques with a dose of 1.35 mg/kg. The dose of EPO protein as a control drug is 240 μ/kg. The drugs are administered three times per week and the administration continues for six weeks. The blood samples are collected to carry out related hematological index analysis.
The purpose of this experiment is to evaluate the effects of EPO mimetic peptide derivatives on erythropoiesis of the macaques.
EPO mimetic peptide HH-EPO-018 is provided by Jiangsu Hansoh Pharmaceutical co., LTD. EPO is purchased from Shenyang Sansheng Pharmaceutical Co., Ltd. The samples are diluted in a saline containing 0.1% BSA before they are used.
Macaques, weighing 5.5˜8.5 kg, male or female, are purchased from Suzhou Xishan Zhongke Laboratory Animal Center. Macaques are grouped according to the basis of hemoglobin with each group having three macaques. HH-EPO-018 is intravenously injected once at a dose of 1.35 mg/kg; EPO is injected three times per week at a dose of 240 μg/kg. The administration is continued for five weeks. Measure hematological indexes are measured 1˜2 times per week.

[3] = system: EPO binding sites on red blood cells from the spleen; conditions: about 400 binding sites, some, cited from earlier work
[4] = current dosage regimen, three consecutive days
[5] = macaques, 240 μg/kg three times per week, five weeks

## EPO: EPO protein purchased from Shenyang Sansheng Pharmaceutical Co., Ltd.; control drug
Erythropoiesis of mice; [4]
  influence on mature red blood cells, blood cell hematocrit, hemoglobin content (in words): no significant influence
  mouse peripheral blood reticulocyte count (in words): significantly promote the increase
Erythropoiesis of mice; mouse, 5 μg/kg, d1-3
  Blood Cell Hematocrit: 46.2 ± 2.7%
Erythropoiesis of mice; mouse, 5 μg/kg, d1-3, x ± SD
  Red Blood Cell Count: 9.0 ± 0.6 ×10^6/μL
  Reticulocyte Count: 483.9 ± 146.5 ×10^9/L
Erythropoiesis of mice; mouse, in vivo
  influence on the peripheral white blood cell count (in words): no significant influence
[1]; about 300 binding sites of about 800 to 1000 per cell membrane
  Kd: 0.09 nM
[1]; remaining binding sites, weak binding
  Kd: ~0.57 nM
[2]; according to the current dosing regimens
  stimulation on macaque hemoglobin generation, HH-EPO-018 compared with EPO (in words): similar
[2]; [5]
  blood cell hematocrit (in words): increases
  peripheral blood hemoglobin content (in words): increases
[3]; "high Kd"
  Kd: 0.1 nM
[3]; "low Kd"
  Kd: 0.8 nM

## I: Ac-GGTYSCHFGALTWVCRPQRG[βAla][ξK]-NH2 / II: Ac-GGTYSCHFGALTWVCRPQRG[βAla][ξK]-NH2 (disulfide I:6-I:15, II:6-II:15; linker I:22-II:22 via X1) [HH-EPO-008]
Erythropoiesis of mice; mouse, d1-3
  Platelet: 1685.5 ± 351.3 ×10^3/μL
  White Blood Cell: 2.9 ± 0.5 ×10^3/μL

## I: Ac-GGTYSCHFGPLTWVCRPQRG[βAla][ξK]-NH2 / II: Ac-GGTYSCHFGPLTWVCRPQRG[βAla][ξK]-NH2 (disulfide I:6-I:15, II:6-II:15; linker I:22-II:22 via X1) [HH-EPO-005]
Erythropoiesis of mice; mouse, d1-3
  Platelet: 1957.8 ± 349.5 ×10^3/μL
  White Blood Cell: 4.2 ± 1.2 ×10^3/μL

## I: Ac-GGTYSCHFGSLTWVCRPQRG[βAla][ξK]-NH2 / II: Ac-GGTYSCHFGSLTWVCRPQRG[βAla][ξK]-NH2 (disulfide I:6-I:15, II:6-II:15; linker I:22-II:22 via X1) [HH-EPO-007]
Erythropoiesis of mice; mouse, d1-3
  Platelet: 2082.1 ± 863.9 ×10^3/μL
  White Blood Cell: 3.6 ± 0.8 ×10^3/μL

## I: Ac-GGTYSC[Nle]FGPLTWVCRPQRG[βAla][ξK]-NH2 / II: Ac-GGTYSC[Nle]FGPLTWVCRPQRG[βAla][ξK]-NH2 (disulfide I:6-I:15, II:6-II:15; linker I:22-II:22 via X1) [HH-EPO-006]
Erythropoiesis of mice; mouse, d1-3
  Platelet: 1087.8 ± 118.5 ×10^3/μL
  White Blood Cell: 4.1 ± 1.2 ×10^3/μL

— patent publication US8642545B2, “Erythropoietin mimetic peptide derivative and its pharmaceutical salts, the preparation and uses thereof” (Jiangsu Hansoh Pharmaceutical Co., Ltd, priority 2007, dated 2014)
